# Measured values from US4352809A, “Method of producing alpha2 antagonism” (Smithkline Corporation, priority 1981, dated 1982).
# Where a name gives a salt, the structure may show the parent alone.
# Target: T1, alpha2 -adrenoceptor (Cavia porcellus, UniProt Q60474)
# T1 construct: The left atrium is removed, dissected free of extraneous tissue and mounted in a 2 ml. superfusion chamber; from tissue; host or cells: isolated left atrium of male guinea pig (prejunctional receptors on sympathetic nerve terminals)
# T1 sequence (Q60474 1-464): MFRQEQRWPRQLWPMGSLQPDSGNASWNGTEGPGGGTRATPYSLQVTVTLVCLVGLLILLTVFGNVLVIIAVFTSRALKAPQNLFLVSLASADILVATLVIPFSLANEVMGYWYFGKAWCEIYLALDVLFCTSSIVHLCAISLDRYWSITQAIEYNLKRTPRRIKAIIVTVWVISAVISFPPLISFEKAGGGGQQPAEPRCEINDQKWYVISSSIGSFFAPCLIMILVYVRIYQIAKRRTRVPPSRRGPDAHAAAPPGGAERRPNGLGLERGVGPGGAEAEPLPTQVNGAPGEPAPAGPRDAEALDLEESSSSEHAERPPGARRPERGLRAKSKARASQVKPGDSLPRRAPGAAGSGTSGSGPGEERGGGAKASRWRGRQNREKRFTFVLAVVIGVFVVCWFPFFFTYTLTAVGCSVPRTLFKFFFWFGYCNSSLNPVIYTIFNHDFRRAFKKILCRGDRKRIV
# Experiment: prejunctional alpha2-antagonist activity, isolated superfused guinea pig left atrium (shift of the clonidine concentration-response curve)
# Assay type: cell-based
# Conditions: isolated perfused guinea pig left atrium; antagonist concentration that shifts the clonidine log concentration-response curve to the right by a factor of 2; read-out: KB (receptor dissociation constant of the antagonist)
# Experimental: Briefly, the heart is removed from a pentobarbitol-anesthetized male guinea pig. The left atrium is removed, dissected free of extraneous tissue and mounted in a 2 ml. superfusion chamber. The tissue is paced at 60 pulse/minute and the sympathetic nerves excited at 6 minute intervals by field stimulation. The response to nerve stimulation is measured as the difference in contractile force between the basal contraction and peak contraction following a nerve stimulation. A concentration-response curve for clonidine (alpha2 -agonist) is prepared by administering increasing concentration of clonidine following each successive stimulation. The tissue is then superfused with the alpha2 -antagonist to be tested for thirty minutes and the clonidine concentration-effect curve was repeated in the presence of antagonist. The receptor dissociation constant of the antagonist (KB) is defined as the antagonist concentration required to shift the log concentration-response curve of the agonist to the right by a factor of 2.
smiles,measurement,value
"c1cc2snnc2c2c1CCNC2 [[1,2,3]thiadiazolo[5,4-h]-6,7,8,9-tetrahydroisoquinoline hydrochloride]",Kb,220 nM
